Laboratory results as given in the supplement of paper PMC10307832.

Tests used:
Test in all cases: relative viability (nuclei count vs DMSO), 5 days (fraction); higher = more cells survive
Dabrafenib + Vorinostat = compound: CC(C)(C)c1nc(-c2cccc(NS(=O)(=O)c3c(F)cccc3F)c2F)c(-c2ccnc(N)n2)s1 [Dabrafenib] + O=C(CCCCCCC(=O)Nc1ccccc1)NO [Vorinostat] (partner 1 µM)
In short: (§1)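 After 5 days of treatment, lung cancer cells in 1536-well plates were fixed and stained in a single step (final 0.05% Triton X-100, 1% formaldehyde, 1 ug/ml Hoechst) and their nuclei counted on 4× images. Treatment had been applied by pin tool the day after seeding as one drug alone or as a fixed anchor-drug dose with five library-drug doses (not always all listed) in √10 steps. Relative viability is the nuclei count of treated wells divided by that of vehicle wells, and values are medians of duplicate plates.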

VX-702 + Navitoclax = compound: NC(=O)c1ccc(N(C(N)=O)c2c(F)cccc2F)nc1-c1ccc(F)cc1F [VX-702] + CC1(C)CCC(c2ccc(Cl)cc2)=C(CN2CCN(c3ccc(C(=O)NS(=O)(=O)c4ccc(N[C@H](CCN5CCOCC5)CSc5ccccc5)c(S(=O)(=O)C(F)(F)F)c4)cc3)CC2)C1 [Navitoclax] (partner 0.5 µM)
In short: as §1

Dabrafenib + OSI-027 = compound: CC(C)(C)c1nc(-c2cccc(NS(=O)(=O)c3c(F)cccc3F)c2F)c(-c2ccnc(N)n2)s1 [Dabrafenib] + COc1cccc2cc(-c3nc([C@H]4CC[C@H](C(=O)O)CC4)n4ncnc(N)c34)[nH]c12 [OSI-027] (partner 0.5 µM)
In short: as §1

VX-702 + Linsitinib = compound: NC(=O)c1ccc(N(C(N)=O)c2c(F)cccc2F)nc1-c1ccc(F)cc1F [VX-702] + C[C@]1(O)C[C@@H](c2nc(-c3ccc4ccc(-c5ccccc5)nc4c3)c3c(N)nccn32)C1 [Linsitinib] (partner 1 µM)
In short: as §1

Cell Line	relative viability (Dabrafenib + Vorinostat; first compound 0.003 µM)	relative viability (Dabrafenib + Vorinostat; first compound 0.009487 µM)	relative viability (Dabrafenib + Vorinostat; first compound 0.03 µM)	relative viability (Dabrafenib + Vorinostat; first compound 0.09487 µM)	relative viability (Dabrafenib + Vorinostat; first compound 0.3 µM)	relative viability (VX-702 + Navitoclax; first compound 0.02 µM)	relative viability (VX-702 + Navitoclax; first compound 0.2 µM)	relative viability (VX-702 + Navitoclax; first compound 0.6325 µM)	relative viability (VX-702 + Navitoclax; first compound 2 µM)	relative viability (Dabrafenib + OSI-027; first compound 0.003 µM)	relative viability (Dabrafenib + OSI-027; first compound 0.009487 µM)	relative viability (Dabrafenib + OSI-027; first compound 0.03 µM)	relative viability (Dabrafenib + OSI-027; first compound 0.09487 µM)	relative viability (Dabrafenib + OSI-027; first compound 0.3 µM)	relative viability (VX-702 + Linsitinib; first compound 0.02 µM)	relative viability (VX-702 + Linsitinib; first compound 0.2 µM)	relative viability (VX-702 + Linsitinib; first compound 0.6325 µM)	relative viability (VX-702 + Linsitinib; first compound 2 µM)
201T	0.978	1.07	0.813	0.947	0.98	1.17	1.22	1.23	1.24	0.306	0.786	0.642	0.656	0.808	0.958	1.03	0.986	0.987
A549						1.25	1.23	1.28	1.42						0.502	0.579	0.57	0.563
A-427	0.793	0.962	0.787	0.762	0.866	0.877	0.919	0.905	0.962		0.351	0.518	0.379	0.474	1.1	1.05	1.17	1.17
ABC-1		1.37	1.19	1.25	1.04					0.442	0.42	0.496	0.537	0.507	0.661		0.925	1.16
BEN		0.499		0.517	0.612	0.0513	0.104	0.0606	0.0662		0.332		0.305	0.269	0.828	0.798	0.967	0.852
CAL-12T	1.06	0.581	0.804	0.679	0.795	1.22	1.18	1.3	1.35	0.523	0.68	0.902	0.566	0.645	0.815	0.898	0.722	0.881
COR-L23	0.387	0.418	0.441	0.412	0.44	0.968	0.979	1.18	1.27	0.768	0.803	0.732	0.6	0.61	1.09	1.06	0.959	1.26
COR-L 105	0.779	0.975	0.806	0.888	0.911	0.82	0.61	0.851	1.08	0.6	0.786	0.58	0.722	0.906	0.965	0.916	0.956	1.4
Calu-6						0.927	0.811	1.01	1.01							0.967	1.09	1.02
ChaGo-K-1	0.518	0.727	0.663	0.694	0.754	0.991	0.403	0.898	1.4	0.209	0.53	0.502	0.504	0.651				
EBC-1						0.441	0.413	0.337	0.389						1.07	0.935	0.914	0.993
EKVX		0.862	0.716	0.608	0.806	0.96	0.932	0.882	0.986	0.649	0.79	0.693	0.652	0.729	0.946	1.01	1.01	0.988
EMC-BAC-2		0.459	0.324	0.281	0.328	1.19	1.13	1.18	1.24	0.359	0.376	0.301	0.295	0.329	0.83	0.796	0.816	0.892
EPLC-272H	0.401	0.411	0.409	0.436	0.498	1.23	1.08	1.05	1.17	0.234	0.371	0.31	0.258	0.249	1	1.1	1.13	1.28
H3255	0.762	0.765	0.755	0.913	0.78	0.508	0.446	0.501	0.557	0.572	0.579	0.62	0.56	0.583	0.941	0.856	0.866	0.929
HARA	0.553	0.644		0.481	0.567	1.08	1.14	1.05	1.09	0.262	0.618		0.327	0.864	1.02	0.877	0.927	0.797
HCC-15	0.862	0.844	0.825	0.768	0.896	0.691	0.648	0.656	0.699	0.547	0.695	0.67	0.53	0.622	0.825	0.766	0.843	0.952
HCC-44	1.07	1.06	1.28	1.05	1.08	0.93	0.99	0.881	1.09	0.45	0.614	0.511	0.478	0.591	0.618	0.671	0.617	0.65
HCC-78		0.507	0.426	0.511	0.616	0.673	0.772	0.806	0.852		0.36	0.334	0.354	0.38	0.448	0.508	0.427	0.492
HCC-366	0.365	0.286	0.29	0.296	0.247	0.971	0.988	1.1	0.918	0.109	0.988	0.501	0.773	1.08	0.592	0.375	0.615	0.47
HCC-827	0.423	1.01	0.785		0.79	1.01	0.988	0.891	0.939	0.586	0.955	0.744		0.657	0.931	0.927	0.953	0.71
HOP-62	0.199	0.806	0.555	0.341	0.5	1.28	0.848	1.03	1.15	0.354	0.841	0.778	0.631	0.557	0.918	0.851	1.04	1.05

Cell Line	relative viability (Dabrafenib + Vorinostat; first compound 0.003 µM)	relative viability (Dabrafenib + Vorinostat; first compound 0.009487 µM)	relative viability (Dabrafenib + Vorinostat; first compound 0.03 µM)	relative viability (Dabrafenib + Vorinostat; first compound 0.09487 µM)	relative viability (Dabrafenib + Vorinostat; first compound 0.3 µM)	relative viability (VX-702 + Navitoclax; first compound 0.02 µM)	relative viability (VX-702 + Navitoclax; first compound 0.2 µM)	relative viability (VX-702 + Navitoclax; first compound 0.6325 µM)	relative viability (VX-702 + Navitoclax; first compound 2 µM)	relative viability (Dabrafenib + OSI-027; first compound 0.003 µM)	relative viability (Dabrafenib + OSI-027; first compound 0.009487 µM)	relative viability (Dabrafenib + OSI-027; first compound 0.03 µM)	relative viability (Dabrafenib + OSI-027; first compound 0.09487 µM)	relative viability (Dabrafenib + OSI-027; first compound 0.3 µM)	relative viability (VX-702 + Linsitinib; first compound 0.02 µM)	relative viability (VX-702 + Linsitinib; first compound 0.2 µM)	relative viability (VX-702 + Linsitinib; first compound 0.6325 µM)	relative viability (VX-702 + Linsitinib; first compound 2 µM)
IA-LM		0.957	0.983	0.829	1.07	0.928	0.853	0.658	0.905						0.585	0.723	0.606	0.557
LC-2-ad	0.74	0.736	0.73	0.613	0.686	0.467	0.565	0.475	0.561		1.14	0.83	0.76	0.859	0.778	0.799	0.922	0.885
LCLC-97TM1		0.928	0.695	0.283	0.596	0.379	0.458	0.344	0.489	0.308	0.535	0.683	0.237	0.237	0.131	0.189	0.172	0.207
LCLC-103H	0.627	0.772	0.576	0.765	0.816					0.4	0.502	0.46	0.51	0.461	1.23	0.954	1.12	1
LK-2	0.333	0.228	0.268	0.265	0.34	0.834	0.811	0.64	0.781	0.174	0.238	0.155	0.248	0.206	0.711	0.436		0.542
LOU-NH91		0.941	0.964	0.941	1.07	0.638	0.638	0.643	0.422	0.488	0.801	0.666	0.7	0.75	1.01	0.926	0.933	0.687
LU99A	0.549	0.492	0.457	0.406	0.391	0.857	0.878	0.813	0.698	0.282	0.307	0.29	0.339	0.268	0.511	0.517	0.466	0.515
LXF-289	0.73	0.779	0.759	0.674	0.789	1	0.957	0.935	0.961	0.337	0.819	0.751	0.783	0.856	0.941	0.961	0.931	0.96
NCI-H23		0.548	0.592	0.354	0.409	0.701	0.798	0.805	0.933		0.602	0.471	0.435	0.486	0.517	0.528	0.545	0.754
NCI-H358	0.86	0.695	0.741	0.689	0.72					0.486	0.923	0.74	0.576	0.655	0.748	0.728	0.613	0.963
NCI-H522		1.06	0.864	0.815	0.93						0.761	0.642	0.714	0.757				
NCI-H650		0.346	0.408	0.241	0.218						0.578	0.427	0.331	0.301	0.927		1.07	1.12
NCI-H661	0.889	0.778	0.804	0.767	0.842					0.785	0.709	0.676	0.682	0.675	0.523	0.587	0.5	0.826
NCI-H1299						1.1	1.08	1.07	1.15						1.17	0.999	1.06	1.09
NCI-H1563										0.732	0.742	0.675	0.791	0.676	1.23	1.15	1.18	1.14
NCI-H1623											0.46	0.441	0.425	0.489				
NCI-H1648	0.459	0.429		0.499	0.421					0.225	0.249	0.298	0.244	0.209				
NCI-H1650	0.547	0.528	0.711	0.608	0.659	1.1	1.16	1.43	1.31	0.318	0.899	0.374	0.803	0.948				
NCI-H1703						1.01	1.35	1.08	1.47						0.531	0.717	0.937	1.26
NCI-H1792						0.718	0.621	0.695	0.753		0.749	0.618	0.737	0.753	0.404	0.484	0.458	0.5
NCI-H2170	0.777	0.798	0.703	0.647	0.732	0.625	0.372	0.665	0.607	0.749	0.698	0.589	0.745	0.684				
NCI-H2342	0.551	0.702	0.664	0.696	0.721					0.532	0.548	0.504	0.715	0.737				
